ChEMBL document CHEMBL1145199, “Design, synthesis, and SAR of a novel pyrazinone series with non-nucleoside HIV-1 reverse transcriptase inhibitory activity” (J Med Chem, 2005)

How the values were obtained:
Assay type in all cases: functional, organism-based
[1] = test system: Human immunodeficiency virus 1; test: Inhibitory concentration against 103N mutant was determined
[2] = test system: Human immunodeficiency virus 1; test: Inhibitory concentration against 188L mutant was determined
[3] = test system: Human immunodeficiency virus 1; test: Inhibitory concentration against 100I mutant was determined
[4] = test system: Human immunodeficiency virus 1; test: Inhibitory concentration against wild-type HIV-1 LAI Virus was determined
[5] = test system: Human immunodeficiency virus 1; test: Inhibitory concentration against 181C mutant was determined
[6] = test system: Human immunodeficiency virus 1; test: Inhibitory concentration against 188L mutant strain was determined
[7] = test system: Human immunodeficiency virus 1; test: Inhibitory concentration against 103N and 181C mutant was determined
[8] = test system: Human immunodeficiency virus 1; test: Inhibitory concentration against 100I and 103N mutant was determined
[9] = test system: Human immunodeficiency virus 1; test: Inhibitory concentration against 100I and 103N mutant strains was determined
[10] = test system: Human immunodeficiency virus 1; test: Inhibitory concentration against 103N and 181C mutant strains was determined
[11] = Human immunodeficiency virus 1, read-out: IC50

SMILES	IC50 [1, 11] [nM]	IC50 [2, 11] [nM]	IC50 [3, 11] [nM]	IC50 [4, 11] [nM]	IC50 [5, 11] [nM]	further results
Cc1cc(C)c(Sc2cn(C)c(=O)c(Nc3ccc(C#N)cc3)n2)c(C)c1	631	631	> 10000	16	1000	
Cc1cc(C)c(S(=O)(=O)c2nc(Nc3ccc(C#N)cc3)c(=O)n(C)c2C)c(C)c1	320		25	3	63	IC50 [6]: 158 nM
Cc1ccccc1Oc1nc(Nc2ccc(C#N)cc2)c(=O)n(C)c1C	398	2510	398	5	2510	
Cc1cc(C)c(Sc2cn(C)c(=O)c(Nc3ccc(Cl)cc3)n2)c(C)c1	> 10000	10000	> 10000	79	6300	
Cc1ccc(Sc2cn(C)c(=O)c(Nc3ccc(C#N)cc3)n2)c(C)c1	> 10000	> 10000	> 10000	5	> 10000	
Cc1cc(C)c(Oc2nc(Nc3ccc(C#N)cc3)c(=O)n(C)c2C)c(C)c1	> 158	> 200	> 50	5	> 501	
Cc1ccc(Oc2cn(C)c(=O)c(Nc3ccc(F)cc3)n2)c(C)c1						IC50 [1]: > 10 µmol; IC50 [2]: > 10 µmol; IC50 [3]: > 10 µmol; IC50 [4]: 1.258 µmol; IC50 [5]: > 10 µmol
Cc1ccc(Oc2nc(Nc3ccc(C#N)cc3)c(=O)n(C)c2C)c(C)c1	32	158	25	3	63	IC50 [7]: 1000 nM; IC50 [8]: 158 nM
Cc1ccc(Oc2cn(C)c(=O)c(Nc3ccc(C(F)(F)F)cc3)n2)c(C)c1				501		
Cc1ccccc1Oc1cn(Cc2ccccc2)c(=O)c(Nc2ccc(C#N)cc2)n1				316		
Cc1ccc(Nc2nc(Oc3ccc(C)cc3C)cn(C)c2=O)cc1						IC50 [4]: > 100 µmol
Cc1ccccc1Oc1cn(C)c(=O)c(Nc2ccc(C#N)cc2)n1	794	2000	1260	4	2510	
Cc1ccc(Sc2nc(Nc3ccc(Cl)cc3)c(=O)n(C)c2C)c(C)c1				501		
Cc1ccc(Oc2nc(Nc3ccc(Cl)cc3)c(=O)n(C)c2C)c(C)c1	3980	> 10000	3980	126	> 10000	
Cc1cc(C#N)cc(C)c1Oc1nc(Nc2ccc(C#N)cc2)c(=O)n(C)c1C				6	25	IC50 [7]: 63 nM; IC50 [8]: 158 nM
Cc1ccccc1Sc1nc(Nc2ccc(C#N)cc2)c(=O)n(C)c1C	> 10000	> 10000	> 10000	40	> 10000	
Cc1ccc(Oc2cn(C)c(=O)c(Nc3ccc(C#N)cc3)n2)c(C)c1	32	398	316	< 1	159	
Cc1ccccc1Sc1cn(C)c(=O)c(Nc2ccc(C#N)cc2)n1	> 10000	> 10000	> 10000	20	> 10000	
Cc1ccc(Oc2cn(C)c(=O)c(Nc3ccccc3)n2)c(C)c1						IC50 [4]: 0.251 µmol
Cc1ccc(Oc2cn(C)c(=O)c(Nc3ccc(Cl)cc3)n2)c(C)c1	5010	> 10000	5010	25	5010	
Cc1ccccc1Sc1nc(Nc2ccc(C#N)cc2)c(O)nc1C	631	631	5010	40	5010	
Cc1cc(C)c(S(=O)(=O)c2cn(C)c(=O)c(Nc3ccc(C#N)cc3)n2)c(C)c1	> 10000	> 10000	> 10000	8	398	
Cc1ccccc1Oc1nc(Nc2ccc(Cl)cc2)c(=O)n(C)c1C	> 10000	> 10000	5010	100	> 10000	
Cc1ccc(Oc2cn(Cc3ccccc3)c(=O)c(Nc3ccc(C#N)cc3)n2)c(C)c1	631	> 10000	631	32	1580	
O=C1Nc2ccc(Cl)cc2[C@@](C#CC2CC2)(C(F)(F)F)O1 [EFAVIRENZ]	40		40		2	IC50 [9]: > 10000 nM; IC50 [10]: 40 nM
